*1 amine or outer side, *2 acyl side, *3 side chain or, on linkers, in order; H or OH if unused. Where a SMILES comes first, the peptide text is derived from it. Side-chain parts run from the residue outwards. [ ]: non-standard residue; d: D form. The star is where a group is joined. C20 diacid = O=C(O)CCCCCCCCCCCCCCCCCCC(=O)*; γGlu = O=C(O)[C@H](CCC(=O)[*:2])N[*:1]; 4Pal = N[C@@H](Cc1ccncc1)C(=O)O; αMeL = CC(C)C[C@](C)(N)C(=O)O; AEEA = NCCOCCOCC(=O)O; Aib = CC(C)(N)C(=O)O
Target: T1, human GcgR (Homo sapiens, UniProt P47871)
T1 construct: expressed in transfected cells; crude membranes
T1 sequence (P47871 26-477): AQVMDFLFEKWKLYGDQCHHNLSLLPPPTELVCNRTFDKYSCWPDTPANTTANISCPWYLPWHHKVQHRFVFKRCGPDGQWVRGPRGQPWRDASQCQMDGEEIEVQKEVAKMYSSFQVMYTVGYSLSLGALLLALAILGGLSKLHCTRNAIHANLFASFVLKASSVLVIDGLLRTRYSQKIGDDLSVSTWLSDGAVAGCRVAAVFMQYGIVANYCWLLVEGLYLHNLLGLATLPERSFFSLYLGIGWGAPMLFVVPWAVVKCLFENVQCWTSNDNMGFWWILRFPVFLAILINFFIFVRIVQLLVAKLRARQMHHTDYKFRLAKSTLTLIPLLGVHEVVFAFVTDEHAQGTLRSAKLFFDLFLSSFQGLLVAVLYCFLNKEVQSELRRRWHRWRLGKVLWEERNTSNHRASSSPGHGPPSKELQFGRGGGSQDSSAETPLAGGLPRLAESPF
Experiment: [125I]-Glucagon binding, SPA with WGA beads, 0.1% bacitracin
Details: geometric mean, read-out: hGcgR Ki
Procedure, shortened: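 SPA competition binding with WGA beads on crude membranes from HEK293 cells stably expressing hGcgR. Buffer: 25 mM HEPES pH 7.4, 2.5 mM CaCl2, 1 mM MgCl2, 0.1% bacitracin, 0.003% Tween-20; 10-point 3-fold dilutions, NSB with 1 μM Gcg.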

CC[C@H](C)[C@H](NC(=O)[C@H](CO)NC(=O)[C@H](Cc1ccc(O)cc1)NC(=O)[C@H](CC(=O)O)NC(=O)[C@H](CO)NC(=O)[C@@H](NC(=O)[C@](C)(CC(C)C)NC(=O)[C@@H](NC(=O)CNC(=O)[C@H](CCC(=O)O)NC(=O)C(C)(C)NC(=O)[C@@H](N)Cc1ccc(O)cc1)[C@@H](C)O)[C@@H](C)CC)C(=O)N[C@@H](C)C(=O)N[C@@H](CC(C)C)C(=O)N[C@@H](CC(=O)O)C(=O)N[C@@H](CCCCN)C(=O)N[C@@H](CCCCNC(=O)COCCOCCNC(=O)COCCOCCNC(=O)CC[C@H](NC(=O)CCCCCCCCCCCCCCCCCCC(=O)O)C(=O)O)C(=O)N[C@@H](Cc1c[nH]cn1)C(=O)N[C@@H](CCC(N)=O)C(=O)NC(C)(C)C(=O)N[C@@H](CCC(=O)O)C(=O)N[C@@H](Cc1ccccc1)C(=O)N[C@H](C(=O)N[C@@H](CC(N)=O)C(=O)N[C@@H](Cc1ccc(O)cc1)C(=O)N[C@@H](CC(C)C)C(=O)N[C@@H](CC(C)C)C(=O)N[C@@H](C)C(=O)N[C@H](C(=O)NCC(=O)N1CCC[C@H]1C(=O)N[C@@H](CO)C(=O)N[C@@H](CO)C(=O)NCC(=O)N[C@@H](C)C(=O)N1CCC[C@H]1C(=O)N1CCC[C@H]1C(=O)N1CCC[C@H]1C(=O)N[C@@H](CO)C(N)=O)[C@@H](C)O)C(C)C [Example 35] (H-Y[Aib]EGT[αMeL]ISDYSIALDKK([AEEA-AEEA-γGlu-C20 diacid])HQ[Aib]EFVNYLLATGPSSGAPPPS-NH2)
Ki: > 960 nM

CC[C@H](C)[C@H](NC(=O)[C@H](Cc1ccccc1)NC(=O)[C@@H](NC(=O)CNC(=O)[C@H](CCC(=O)O)NC(=O)C(C)(C)NC(=O)[C@@H](N)Cc1ccc(O)cc1)[C@@H](C)O)C(=O)N[C@@H](CO)C(=O)N[C@@H](CC(=O)O)C(=O)N[C@@H](Cc1ccc(O)cc1)C(=O)N[C@@H](CO)C(=O)N[C@H](C(=O)N[C@@](C)(CC(C)C)C(=O)N[C@@H](CC(C)C)C(=O)N[C@@H](CC(=O)O)C(=O)N[C@@H](CCCCN)C(=O)N[C@@H](CCCCNC(=O)COCCOCCNC(=O)COCCOCCNC(=O)CC[C@H](NC(=O)CCCCCCCCCCCCCCCCCCC(=O)O)C(=O)O)C(=O)N[C@@H](Cc1c[nH]cn1)C(=O)N[C@@H](CCC(N)=O)C(=O)NC(C)(C)C(=O)N[C@@H](CC(=O)O)C(=O)N[C@@H](Cc1ccccc1)C(=O)N[C@H](C(=O)N[C@@H](CCC(=O)O)C(=O)N[C@@H](Cc1ccncc1)C(=O)N[C@@H](CC(C)C)C(=O)N[C@@H](CC(C)C)C(=O)N[C@@H](CCC(=O)O)C(=O)N[C@@H](CCC(N)=O)C(=O)NCC(=O)N1CCC[C@H]1C(=O)N[C@@H](CO)C(=O)N[C@@H](CO)C(=O)NCC(=O)N[C@@H](C)C(=O)N1CCC[C@H]1C(=O)N1CCC[C@H]1C(=O)N1CCC[C@H]1C(=O)N[C@@H](CO)C(N)=O)C(C)C)[C@@H](C)CC [Example 46] (H-Y[Aib]EGTFISDYSI[αMeL]LDKK([AEEA-AEEA-γGlu-C20 diacid])HQ[Aib]DFVE[4Pal]LLEQGPSSGAPPPS-NH2)
Ki: 435 nM

Reference: patent US12723063B2, “GIPR-agonist compounds” (Eli Lilly and Company, priority 2019, dated 2026)
